These results are taken from patent US20260241012A1, “1,8-NAPHTHYRIDIN-2-ONE HETEROBIFUNCTIONAL BCL6 DEGRADERS” (Treeline Biosciences, Inc., priority 2022, published 2026).

Structures are written as SMILES. A value given as a limit tells only on which side of the number the result lay.

The assay has as its target T1, N-terminal HiBiT tagged BCL6 (Homo sapiens, UniProt P41182).
T1 construct: expressed in transfected cells; host or cells: HT1080 (ATCC CCL-121), stably transduced with lentivirus pLV-UBC-N-HiBiT-BCL6-PGK-puro
As to the kind of experiment: HiBiT based degradation assay. The class given is cell-based. Particulars: HT1080 cells expressing N-terminal HiBiT tagged BCL6, 5 hours of incubation; for Ymin (5 hr): BCL6 degradation normalized with DMSO control; for DC50: four-parameter logistic model, read-out: EC50 (5 hr). An outline of the steps: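 Degradation measured by luminescence from the Nano-Glo HiBiT lytic reagent (15 min, room temperature), normalized to DMSO controls and fitted to a four-parameter curve.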
A general note: HiBiT is a short tag that completes a luciferase, so light tracks the accessible tagged protein.

On to `CNC(=O)COc1cc2cc(Nc3nc(N4CC[C@@H](CN5CCN(c6ccc7c(C8CCC(=O)NC8=O)nn(C)c7c6)CC5)C4)ncc3Cl)cnc2n(C(C)C)c1=O` (stereo partly drawn) [Compound 218a, 2-[[6-[[5-chloro-2-[(3S)-3-[[4-[3-(2,6-dioxo-3-piperidyl)-1-methyl-indazol-6-yl]piperazin-1-yl]methyl]pyrrolidin-1-yl]pyrimidin-4-yl]amino]-1-isopropyl-2-oxo-1,8-naphthyridin-3-yl]oxy]-N-methyl-acetamide], for which the “Ymin (5 hr)” value is on record as “+++ (30% ≤ Ymin < 50%)” and the DC50 is less than 0.01 µM.
Consider `CNC(=O)COc1cc2cc(Nc3nc(N4CC[C@H](CN5CCN(c6ccc7c(C8CCC(=O)NC8=O)nn(C)c7c6)CC5)C4)ncc3Cl)cnc2n(C(C)C)c1=O` (stereo partly drawn) [Compound 218b, 2-[[6-[[5-chloro-2-[(3R)-3-[[4-[3-(2,6-dioxo-3-piperidyl)-1-methyl-indazol-6-yl]piperazin-1-yl]methyl]pyrrolidin-1-yl]pyrimidin-4-yl]amino]-1-isopropyl-2-oxo-1,8-naphthyridin-3-yl]oxy]-N-methyl-acetamide], for which the “Ymin (5 hr)” value is “+++ (30% ≤ Ymin < 50%)” and the DC50 was less than 0.01 µM.
In the case of `CNC(=O)COc1cc2cc(Nc3nc(N4CCN(C(=O)N5CCN(c6ccc7c(C8CCC(=O)NC8=O)nn(C)c7c6)CC5)CC4)ncc3Cl)cnc2n(C(C)C)c1=O` (centres unmarked) [Compound 219, 2-[[6-[[5-chloro-2-[4-[4-[3-(2,6-dioxo-3-piperidyl)-1-methyl-indazol-6-yl]piperazine-1-carbonyl]piperazin-1-yl]pyrimidin-4-yl]amino]-1-isopropyl-2-oxo-1,8-naphthyridin-3-yl]oxy]-N-methyl-acetamide], the “Ymin (5 hr)” value was “+++ (30% ≤ Ymin < 50%)” and the DC50 was less than 0.01 µM.
Turning to `CNC(=O)COc1cc2cc(Nc3nc(N4CCN(C(=O)N5CCC(c6ccc7c(C8CCC(=O)NC8=O)nn(C)c7c6)CC5)CC4)ncc3Cl)cnc2n(C(C)C)c1=O` (centres unmarked) [Compound 220, 2-[[6-[[5-chloro-2-[4-[4-[3-(2,6-dioxo-3-piperidyl)-1-methyl-indazol-6-yl]piperidine-1-carbonyl]piperazin-1-yl]pyrimidin-4-yl]amino]-1-isopropyl-2-oxo-1,8-naphthyridin-3-yl]oxy]-N-methyl-acetamide], the “Ymin (5 hr)” value is “+++ (30% ≤ Ymin < 50%)” and the DC50 was less than 0.01 µM.
In the case of `CNC(=O)COc1cc2cc(Nc3nc(N4CC5(CCC(Nc6c(F)ccc7c(C8CCC(=O)NC8=O)nn(C)c67)CC5)C4)ncc3Cl)cnc2n(C(C)C)c1=O` (centres unmarked) [Compound 222, 2-[[6-[[5-chloro-2-[7-[[3-(2,6-dioxo-3-piperidyl)-6-fluoro-1-methyl-indazol-7-yl]amino]-2-azaspiro[3.5]nonan-2-yl]pyrimidin-4-yl]amino]-1-isopropyl-2-oxo-1,8-naphthyridin-3-yl]oxy]-N-methyl-acetamide], the “Ymin (5 hr)” value is given as “++ (50% ≤ Ymin < 70%)” and the DC50 is 0.01 to 0.1 µM.
On to `CNC(=O)COc1cc2cc(Nc3nc(N4CCN(C(=O)N5CCN(c6cccc7c(C8CCC(=O)NC8=O)nn(C)c67)CC5)CC4)ncc3Cl)cnc2n(C(C)C)c1=O` (centres unmarked) [Compound 223, 2-[[6-[[5-chloro-2-[4-[4-[3-(2,6-dioxo-3-piperidyl)-1-methyl-indazol-7-yl]piperazine-1-carbonyl]piperazin-1-yl]pyrimidin-4-yl]amino]-1-isopropyl-2-oxo-1,8-naphthyridin-3-yl]oxy]-N-methyl-acetamide], for which the “Ymin (5 hr)” value is “++++ (Ymin < 30%)” and the DC50 is less than 0.01 µM.
Regarding `CNC(=O)COc1cc2cc(Nc3nc(N4CCN(C(=O)N5CCC(c6cccc7c(C8CCC(=O)NC8=O)nn(C)c67)CC5)CC4)ncc3Cl)cnc2n(C(C)C)c1=O` (centres unmarked) [Compound 224, 2-[[6-[[5-chloro-2-[4-[4-[3-(2,6-dioxo-3-piperidyl)-1-methyl-indazol-7-yl]piperidine-1-carbonyl]piperazin-1-yl]pyrimidin-4-yl]amino]-1-isopropyl-2-oxo-1,8-naphthyridin-3-yl]oxy]-N-methyl-acetamide], the “Ymin (5 hr)” value was “+++ (30% ≤ Ymin < 50%)” and the DC50 was less than 0.01 µM.
Turning to `CNC(=O)COc1cc2cc(Nc3nc(N4CCC(OC5CCN(c6cccc7c(C8CCC(=O)NC8=O)nn(C)c67)CC5)CC4)ncc3Cl)cnc2n(C(C)C)c1=O` (centres unmarked) [Compound 225, 2-[[6-[[5-chloro-2-[4-[[1-[3-(2,6-dioxo-3-piperidyl)-1-methyl-indazol-7-yl]-4-piperidyl]oxy]-1-piperidyl]pyrimidin-4-yl]amino]-1-isopropyl-2-oxo-1,8-naphthyridin-3-yl]oxy]-N-methyl-acetamide], the “Ymin (5 hr)” value is on record as “++++ (Ymin < 30%)” and the DC50 fell in the range of 0.01 to 0.1 µM.
In the case of `CNC(=O)COc1cc2cc(Nc3nc(N4CCC(O[C@H]5C[C@H](N6CCN(c7ccc8c(C9CCC(=O)NC9=O)nn(C)c8c7)CC6)C5)CC4)ncc3Cl)cnc2n(C(C)C)c1=O` (some centres unmarked) [Compound 226a, 2-((6-((5-chloro-2-(4-((1r,3r)-3-(4-(3-(2,6-dioxopiperidin-3-yl)-1-methyl-1H-indazol-6-yl)piperazin-1-yl)cyclobutoxy)piperidin-1-yl)pyrimidin-4-yl)amino)-1-isopropyl-2-oxo-1,2-dihydro-1,8-naphthyridin-3-yl)oxy)-N-methylacetamide], the “Ymin (5 hr)” value is listed as “+++ (30% ≤ Ymin < 50%)” and the DC50 was less than 0.01 µM.
Consider `CNC(=O)COc1cc2cc(Nc3nc(N4CCN([C@H]5C[C@H](OC6CCN(c7ccc8c(C9CCC(=O)NC9=O)nn(C)c8c7)CC6)C5)CC4)ncc3Cl)cnc2n(C(C)C)c1=O` (some centres unmarked) [Compound 227a, 2-((6-((5-chloro-2-(4-((1r,3r)-3-((1-(3-(2,6-dioxopiperidin-3-yl)-1-methyl-1H-indazol-6-yl)piperidin-4-yl)oxy)cyclobutyl)piperazin-1-yl)pyrimidin-4-yl)amino)-1-isopropyl-2-oxo-1,2-dihydro-1,8-naphthyridin-3-yl)oxy)-N-methylacetamide], for which the “Ymin (5 hr)” value was “++ (50% ≤ Ymin < 70%)” and the DC50 was less than 0.01 µM.
Take `CNC(=O)COc1cc2cc(Nc3nc(N4CCN(C[C@@H]5CCN(c6ccc7c(C8CCC(=O)NC8=O)nn(C)c7c6)C5)CC4)ncc3Cl)cnc2n(C(C)C)c1=O` (stereo partly drawn) [Compound 228a, 2-[[6-[[5-chloro-2-[4-[[(3S)-1-[3-(2,6-dioxo-3-piperidyl)-1-methyl-indazol-6-yl]pyrrolidin-3-yl]methyl]piperazin-1-yl]pyrimidin-4-yl]amino]-1-isopropyl-2-oxo-1,8-naphthyridin-3-yl]oxy]-N-methyl-acetamide]: the “Ymin (5 hr)” value is recorded as “+++ (30% ≤ Ymin < 50%)” and the DC50 is less than 0.01 µM.
Take `CNC(=O)COc1cc2cc(Nc3nc(N4CCN(C[C@H]5CCN(c6ccc7c(C8CCC(=O)NC8=O)nn(C)c7c6)C5)CC4)ncc3Cl)cnc2n(C(C)C)c1=O` (stereo partly drawn) [Compound 228b, 2-((6-((5-chloro-2-(4-(((3R)-1-(3-(2,6-dioxopiperidin-3-yl)-1-methyl-1H-indazol-6-yl)pyrrolidin-3-yl)methyl)piperazin-1-yl)pyrimidin-4-yl)amino)-1-isopropyl-2-oxo-1,2-dihydro-1,8-naphthyridin-3-yl)oxy)-N-methylacetamide]: the “Ymin (5 hr)” value is reported as “++ (50% ≤ Ymin < 70%)” and the DC50 lay in the range of 0.01 to 0.1 µM.
In the case of `CNC(=O)COc1cc2cc(Nc3nc(N4CCC5(CC4)CC(N4CCN(c6ccc7c(C8CCC(=O)NC8=O)nn(C)c7c6)CC4)C5)ncc3Cl)cnc2n(C(C)C)c1=O` (centres unmarked) [Compound 229, 2-[[6-[[5-chloro-2-[2-[4-[3-(2,6-dioxo-3-piperidyl)-1-methyl-indazol-6-yl]piperazin-1-yl]-7-azaspiro[3.5]nonan-7-yl]pyrimidin-4-yl]amino]-1-isopropyl-2-oxo-1,8-naphthyridin-3-yl]oxy]-N-methyl-acetamide], the “Ymin (5 hr)” value is “++++ (Ymin < 30%)” and the DC50 was less than 0.01 µM.
For `CNC(=O)COc1cc2cc(Nc3nc(N4CCC5(CC4)CC(N4CCN(c6cccc7c(C8CCC(=O)NC8=O)nn(C)c67)CC4)C5)ncc3Cl)cnc2n(C(C)C)c1=O` (centres unmarked) [Compound 230, 2-[[6-[[5-chloro-2-[2-[4-[3-(2,6-dioxo-3-piperidyl)-1-methyl-indazol-7-yl]piperazin-1-yl]-7-azaspiro [3.5]nonan-7-yl]pyrimidin-4-yl]amino]-1-isopropyl-2-oxo-1,8-naphthyridin-3-yl]oxy]-N-methyl-acetamide] the same measures were “+++ (30% ≤ Ymin < 50%)” and 0.01 to 0.1 µM.
Regarding `CNC(=O)COc1cc2cc(Nc3nc(N4CCC(CN5CCN(c6cccc7c(C8CCC(=O)NC8=O)nn(C)c67)C[C@H]5CO)CC4)ncc3Cl)cnc2n(C(C)C)c1=O` (stereo partly drawn) [Compound 231a, 2-[[6-[[5-chloro-2-[4-[[(2S)-4-[3-(2,6-dioxo-3-piperidyl)-1-methyl-indazol-7-yl]-2-(hydroxymethyl)piperazin-1-yl]methyl]-1-piperidyl]pyrimidin-4-yl]amino]-1-isopropyl-2-oxo-1,8-naphthyridin-3-yl]oxy]-N-methyl-acetamide], the “Ymin (5 hr)” value is given as “++++ (Ymin < 30%)” and the DC50 lay within 0.01 to 0.1 µM.
For `CNC(=O)COc1cc2cc(Nc3nc(N4CCC(CN5CCN(c6cccc7c(C8CCC(=O)NC8=O)nn(C)c67)C[C@@H]5CO)CC4)ncc3Cl)cnc2n(C(C)C)c1=O` (stereo partly drawn) [Compound 231b, 2-[[6-[[5-chloro-2-[4-[[(2R)-4-[3-(2,6-dioxo-3-piperidyl)-1-methyl-indazol-7-yl]-2-(hydroxymethyl)piperazin-1-yl]methyl]-1-piperidyl]pyrimidin-4-yl]amino]-1-isopropyl-2-oxo-1,8-naphthyridin-3-yl]oxy]-N-methyl-acetamide] the same measures were “++++ (Ymin < 30%)” and less than 0.01 µM.
